Data on 14 compounds can be found in publication PMC8198792, “Prediction of Anticancer Peptides with High Efficacy and Low Toxicity by Hybrid Model Based on 3D Structure of Peptides” (International Journal of Molecular Sciences, 2021).

Like-named read-outs stand apart in the source and are kept apart here. Bridge positions count the residues as written; N and C are the ends. Peptide text beside a SMILES is read from it. A value given as a limit tells only on which side of the number the result lay.

Series [1] has as its system Human breast cancer cell line (MCF7). The format is cell-based. Conditions: 24 h. From the text:
(§1) Five peptides were randomly selected from the candidate ACPs and synthesized by Changzhou Kanglong Biotech Ltd (Changzhou, China). using 9-fuorenylmethoxy carbonyl (FMOC) solid phase synthesis technology. The synthetic peptide was identified by mass spectrometry (MS), and the purity >95% by high performance liquid chromatography (HPLC). Human breast cancer cell line (MCF7), lung cancer cell line (A549), cervical cancer cell line (HeLa), colorectal adenocarcinoma cell line (LoVo) and human embryonic kidney cells (293T) were preserved in our laboratory. At 37 °C under 5/95% CO2/air condition, all cell lines were cultured in Dulbecco’s modified Eagle medium (DMEM) supplemented with 10% (v/v) fetal bovine serum (FBS, Gibco, Carlsbad, CA, USA) and 1% (v/v) penicillin/streptomycin (Sangon Biotech, Shanghai, China).
(§2) Human tumor cell lines MCF7, A549, HeLa and LoVo were used as experimental materials to detect the anticancer activity of peptides by MTT assay. In addition, human embryonic kidney cells 293T were also included in the experiment to examine the safety of the peptide against non-cancerous cells. […] Untreated cells as negative control group incubated with corresponding medium for 24 h. Subsequently, 10 uL, 5 mg/mL MTT (Sangon Biotech, Shanghai, China) solution was added to each well and incubated for 4 h at 37 °C. After the medium was discarded, 150 μL DMSO was added to each well for 10 min to dissolve formazan crystals. Absorbance was measured at 570 and 630 nm using a multiwall plate reader and the inhibition rate was expressed as the mean ± standard deviation (SD) of the triplicate data.

Series [2] concerns lung cancer cell line (A549). The format is cell-based, human. As to conditions: for IC50 / killing effects on lung cancer cell A549 (in words): 24 h; for killing effects on lung cancer cell A549 (in words): MTT, anticancer activity when IC50 less than 50 μM.
Text: as §1, §2

For series [3], the system named is colorectal adenocarcinoma cell line (LoVo). The format is cell-based, human. Conditions: 24 h.
Text: as §1, §2

Series [4] deals with cervical cancer cell line (HeLa). The format is cell-based, human. As to conditions: 24 h.
Text: as §1, §2

For series [5], the system named is human embryonic kidney cells (293T). Put plainly: MTT assay on non-cancerous cells, 293T. The format is cell-based. As to conditions: 24 h; for toxicity to 293T cells (in words): low toxicity when the IC50 value exceeded 50 μM, MTT.
Text: as §1, §2
(Tetrazolium dyes change colour on reduction, which living cells bring about.)

For series [6], the system named is many types of cells, including non-cancer cells. Conditions: toxic peptides dataset TD2; class label 1 (toxic, positive set) or 0 (non-toxic AMP, negative set); ref SATPdb; cited from earlier work.
In the next series the test system is cancer cell lines. Also noted: method as in 6 sources, ref CancerPPD [45] and SATPdb ||| ref CancerPPD/SATPdb ||| ref CancerPPD, SATPdb, Swissprot (PDB) ||| ref CancerPPD/SATPdb/Swissprot(PDB) ||| ref CancerPPD / SATPdb ||| ... Conditions: cited from earlier work. The text has this: Supplement ijms-22-05630-s001.zip/ACPs(seguence).xlsx, sheet "D1" | column: Activity || Supplement ijms-22-05630-s001.zip/ACPs(seguence).xlsx, sheet "D2" | column: Activity || Supplement ijms-22-05630-s001.zip/ACPs(seguence).xlsx, sheet "D3" | column: Activity || (+ 2 further places)

For another series, the system named is erythrocytes. Conditions: cited from earlier work. The text has this:
Supplement ijms-22-05630-s001.zip/Hemloytic Peptides(seguence).xlsx, sheet "HD1" | column: Activity || Supplement ijms-22-05630-s001.zip/Hemloytic Peptides(seguence).xlsx, sheet "HD2" | column: Activity || Supplement ijms-22-05630-s001.zip/Hemloytic Peptides(seguence).xlsx, sheet "HD3" | column: Activity

Series [7] deals with 2% sheep red blood cells (SRBC). As to the kind of experiment: Hemolysis assay. The format is cell-based. Conditions: Triton X-100 0.1% (w/v), 2% SRBC, 37 °C, 1 h, absorbance 540 nm; printed once per peptide line. The procedure:
The 2% sheep red blood cells (SRBC) were purchased from Nanjing Senbeijia Biological Technology Co., Ltd (Nangjing, China). A total of 4 mL of 2% SRBC was taken, rinsed twice with 4 mL of PBS by centrifugation for 5 min at 3000 rpm and the precipitates were resuspended in 4 mL of PBS. We added 100 μL of 2% SRBC to each well of the 96-well plate and then added 100 μL peptide solutions of different concentrations (2, 4, 8, 16, 32, 64, 128 and 256 μM) in triplicate at 37 °C for 1 h. 100 μL of PBS buffer and 100 uL of Triton X-100 0.1% (w/v) were mixed with SRBC as negative and positive controls, respectively. All samples were centrifuged at 3000 rpm for 5 min, 100 μL supernatant was collected and transferred to a new 96-well plate, and its absorbance was measured at 540 nm. The calculation formula of hemolysis rate is as follows. (5) % Hemolysis=absorbancesample-absorbancenegative/absorbancepositive-absorbancenegative×100

[8] abbreviates: ACPs dataset D3 (sheet "D3"), label 1 = ACP, 0 = non-ACP, ref CancerPPD/SATPdb.
Where [9] appears, read: ACPs dataset D4 (sheet "D4"), label 1 = ACP, 0 = non-ACP, ref CancerPPD / SATPdb.
The mark [10] stands for this setting: ACPs dataset D5, sheet "D5", label 1 = ACP, 0 = non-ACP, ref CancerPPD [45] and SATPdb.
Where [11] appears, read: Hemolytic peptides dataset HD2, label 1 = hemolytic, 0 = non-hemolytic, ref Hemolytik/SATPdb.
Where [12] appears, read: hemolytic peptides dataset HD3, 1 = hemolytic (positive set), 0 = non-hemolytic (negative set), labels taken from databases, ref Hemolytik/SATPdb.

Broadly, the IC50 is the concentration that inhibits the measured activity by half. A lower IC50 goes with higher potency. `CC(C)C[C@H](NC(=O)CN)C(=O)N[C@@H](Cc1ccccc1)C(=O)N[C@@H](CC(=O)O)C(=O)N[C@H](C(=O)N[C@H](C(=O)N[C@@H](CCCCN)C(=O)NCC(=O)N[C@H](C(=O)N[C@@H](CC(C)C)C(=O)N[C@@H](CCCCN)C(=O)NCC(=O)N[C@@H](C)C(=O)NCC(=O)N[C@@H](CCCCN)C(=O)N[C@@H](CC(N)=O)C(=O)N[C@H](C(=O)N[C@@H](C)C(=O)NCC(=O)N[C@@H](CO)C(=O)N[C@@H](CC(C)C)C(=O)N[C@@H](CC(C)C)C(=O)N[C@@H](CCC(=O)O)C(=O)N[C@@H](CCC(N)=O)C(=O)N[C@@H](CC(C)C)C(=O)N[C@@H](CCCCN)C(=O)N[C@H]1CSSC[C@@H](C(=O)O)NC(=O)CNC(=O)CNC(=O)[C@H](CO)NC(=O)[C@H](CC(C)C)NC(=O)[C@H](CCCCN)NC1=O)C(C)C)C(C)C)C(C)C)C(C)C` [Brevinin-2DYb] (H-GLFDVVKGVLKGAGKNVAGSLLEQLKCKLSGGC-OH; disulfide 27-33; N-terminus and C-terminus assumed): the IC50 in series [1] was determined as 37.8 µM; in series [2], 24 µM; in series [3], 35.1 µM; in series [4] it was 23.3 µM; in series [5], 50.7 µM. Besides, the “selective killing effect on lung cancer A549 cells relative to 293T cells (in words)” value in series [2] (A549 versus 293T, MTT IC50) was “selective killing effect”. The “killing effects on lung cancer cell A549 (in words)” value in series [2] is on record as “effective killing effects”. Also, the “toxicity to 293T cells (in words)” value in series [5] is “low toxicity”.
With `CC[C@H](C)[C@H](NC(=O)CN)C(=O)N[C@@H](Cc1ccccc1)C(=O)N[C@@H](CC(=O)O)C(=O)N[C@H](C(=O)N[C@H](C(=O)N[C@@H](CCCCN)C(=O)NCC(=O)N[C@H](C(=O)N[C@@H](CC(C)C)C(=O)N[C@@H](CCCCN)C(=O)NCC(=O)N[C@H](C(=O)NCC(=O)N[C@@H](CCCCN)C(=O)N[C@@H](CC(N)=O)C(=O)N[C@H](C(=O)N[C@@H](C)C(=O)NCC(=O)N[C@@H](CO)C(=O)N[C@@H](CC(C)C)C(=O)N[C@@H](CC(C)C)C(=O)N[C@@H](CCC(=O)O)C(=O)N[C@@H](CCC(N)=O)C(=O)N[C@@H](CC(C)C)C(=O)N[C@@H](CCCCN)C(=O)N[C@H]1CSSC[C@@H](C(=O)O)NC(=O)CNC(=O)CNC(=O)[C@H](CO)NC(=O)[C@H](CC(C)C)NC(=O)[C@H](CCCCN)NC1=O)C(C)C)C(C)C)C(C)C)C(C)C)C(C)C` [Brevinin-2DYd] (H-GIFDVVKGVLKGVGKNVAGSLLEQLKCKLSGGC-OH; disulfide 27-33; N-terminus and C-terminus assumed), the IC50 in [1] is 25.7 µM; in [2], 2.98 µM; in series [3], 8.05 µM; in series [4] it was 19.7 µM; in series [5], 5.83 µM. In addition, in series [2], the “killing effects on lung cancer cell A549 (in words)” value was “effective killing effects”. Moreover, in series [5], the “toxicity to 293T cells (in words)” value is on record as “highest toxicity”.
For `CC[C@H](C)[C@@H]1NC(=O)[C@H](CCCCN)NC(=O)[C@@H](NC(=O)[C@H](CCCCN)NC(=O)[C@H](CC(C)C)NC(=O)CNC(=O)[C@H](CCC(=O)O)NC(=O)[C@H](CC(C)C)NC(=O)[C@H](CCCCN)NC(=O)CNC(=O)[C@H](C)NC(=O)[C@@H](NC(=O)[C@H](CC(=O)O)NC(=O)[C@H](CCCCN)NC(=O)[C@H](C)NC(=O)[C@H](C)NC(=O)CNC(=O)[C@H](CCCCN)NC(=O)[C@H](CC(C)C)NC(=O)[C@@H](NC(=O)[C@H](CC(=O)O)NC(=O)[C@H](CC(C)C)NC(=O)[C@H](Cc2ccccc2)NC(=O)[C@H](CC(C)C)NC(=O)CN)[C@@H](C)O)C(C)C)CSSC[C@@H](C(=O)N[C@@H](CCCCN)C(=O)N[C@@H](CC(C)C)C(=O)N2CCC[C@H]2C(=O)O)NC(=O)CNC(=O)[C@H]([C@@H](C)O)NC1=O` [RANATUERIN2] (H-GLFLDTLKGAAKDVAGKLEGLKCKITGCKLP-OH; disulfide 23-28; N-terminus and C-terminus assumed), the IC50 in [1], in series [2], in [4] and in series [5] was above 128 µM in each case. Besides, the “toxicity to 293T cells (in words)” value in series [5] is given as “low toxicity”.
For the compound FFGWLIRGAIHAGKAIHGLIHRRRH [satpdb10145], the Activity in series [6] is on record as 1; with cancer cell lines (ACPs dataset D1, 1 = ACP (positive), 0 = non-ACP (negative), label taken from databases, ref CancerPPD [45] and SATPdb), 0; with cancer cell lines (ACPs dataset D4 (sheet "D4"), label 1 = ACP (CancerPPD ID), 0 = non-ACP (non-anticancer AMP, SATPdb ID), ref CancerPPD [45] and SATPdb), 0; in the series on erythrocytes, 1.
For the compound FVGAIAAALPHVISAIKNAL [satpdb12079], the Activity in series [6] is listed as 1; in the series with cancer cell lines (setting [8]), 0; with cancer cell lines (setting [9]), 0; with cancer cell lines (setting [10]), 0; in the series on erythrocytes (setting [11]) it was 1; in the series with erythrocytes (setting [12]) it was 1.
Take GLLGPLLKIAAKVGSNLL [satpdb10126]: the Activity (in [6]; with erythrocytes) was 1 in each case.
For the compound IDWKKLLDAAKQIL [satpdb24876], the Activity was 1 in series [6], 0 in the series on erythrocytes (setting [11]) and 0 in the series on erythrocytes (setting [12]).
For the compound Triton X-100 [reference compound], the “Hemolytic effect on 2% sheep erythrocytes, Positive Control (Triton X-100 (0.1%))” value in series [7] is “+ (The “+” symbol indicates that the hemolysis rate exceeds 10% when peptides concentration reaches 100 μM)”.
With VKLfPVKLfP [satpdb12197], the Activity is listed as 1 in [6], 0 in the series with cancer cell lines (setting [8]), 0 with cancer cell lines (setting [9]) and 0 in the series on cancer cell lines (setting [10]).
On to VOLFPFFNQY [satpdb13046], for which the Activity (in series [6]; in the series on cancer cell lines (setting [8]); with cancer cell lines (setting [9]); in the series on cancer cell lines (setting [10])) was 0 throughout.
In the case of VOLFPVOLFP [satpdb12868], the Activity (in series [6]; in the series on cancer cell lines (setting [8]); in the series with cancer cell lines (setting [9]); in the series on cancer cell lines (setting [10])) was 0 in each case.
As for VOLFPWFNQY [satpdb12517], the Activity (in [6]; in the series on cancer cell lines (setting [8]); with cancer cell lines (setting [9]); in the series on cancer cell lines (setting [10])) was 0 throughout.
Regarding VOLFPWWNQY [satpdb13995], the Activity (in series [6]; with cancer cell lines (setting [8]); in the series with cancer cell lines (setting [9]); in the series on cancer cell lines (setting [10])) was 0 each time.
Take WRSLGRTLLRLSHALKPLARRSGW [satpdb10596]: the Activity in [6] was 0; in the series on cancer cell lines (ACPs dataset D3 (supplement sheet "D3"), 1 = ACP, 0 = non-ACP, ref CancerPPD [45] and SATPdb) it was 0; in the series with cancer cell lines (setting [9]), 0; in the series on cancer cell lines (setting [10]), 0.
